Measurements as given in PubChem BioAssay (NCI).
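Briefly, cells in 96-well plates were exposed to five compound concentrations for 48 h, and endpoints were estimated by linear interpolation. The concentration for 50% growth inhibition is given as GI50. The concentration for full growth arrest is given as TGI.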

Experiments:
Assay in all cases: growth of human tumour cells (NCI), 48 h
[1] = test system: A549 NSCLC
[2] = test system: CAKI-1 renal
[3] = test system: DU-145 prostate
[4] = test system: HOP-92 NSCLC
[5] = test system: HS 578T breast
[6] = test system: KM12 colon
[7] = test system: OVCAR-3 ovarian
[8] = test system: OVCAR-4 ovarian
[9] = test system: OVCAR-8 ovarian
[10] = test system: SK-MEL-5 melanoma
[11] = test system: SK-OV-3 ovarian
[12] = test system: SW-620 colon
[13] = test system: TK-10 renal
[14] = test system: 786-0 renal
[15] = test system: ACHN renal
[16] = test system: BT-549 breast
[17] = test system: CCRF-CEM leukemia
[18] = test system: EKVX NSCLC
[19] = test system: HCT-116 colon
[20] = test system: HCT-15 colon
[21] = test system: HL-60(TB) leukemia
[22] = test system: HOP-62 NSCLC
[23] = test system: HT29 colon
[24] = test system: K-562 leukemia
[25] = test system: LOX IMVI melanoma
[26] = test system: M14 melanoma
[27] = test system: MDA-MB-231 breast
[28] = test system: MDA-MB-435
[29] = test system: MOLT-4 leukemia
[30] = test system: NCI-H226 lung
[31] = test system: NCI-H23 lung
[32] = test system: NCI-H460 lung
[33] = test system: NCI-H522 lung
[34] = test system: NCI/ADR-RES ovarian
[35] = test system: OVCAR-5 ovarian
[36] = test system: PC-3 prostate
[37] = test system: RPMI-8226 leukemia
[38] = test system: RXF 393 renal
[39] = test system: SF-268 CNS
[40] = test system: SF-295 CNS
[41] = test system: SF-539 CNS
[42] = test system: SK-MEL-28 melanoma
[43] = test system: SN12C renal
[44] = test system: SNB-19 CNS
[45] = test system: SNB-75 CNS
[46] = test system: U251 CNS
[47] = test system: UACC-257 melanoma
[48] = test system: UACC-62 melanoma
[49] = test system: UO-31 renal

Fc1ccc(-c2nc(Nc3ccc(-c4nc5ccccc5[nH]4)cc3)nc(N3CCOCC3)n2)cc1
GI50 [1]: 0.666 µM | TGI [1]: 2.13 µM | GI50 [2]: 1.41 µM | TGI [2]: 2.72 µM | GI50 [3]: 0.452 µM | TGI [3]: 1.64 µM | GI50 [4]: 1.3 µM | TGI [4]: 2.7 µM | GI50 [5]: 0.7 µM | TGI [5]: 3.02 µM | GI50 [6]: 0.37 µM | TGI [6]: 1.41 µM | GI50 [7]: 0.374 µM | TGI [7]: 1.37 µM | GI50 [8]: 1.04 µM | TGI [8]: 2.4 µM | GI50 [9]: 1.12 µM | TGI [9]: 2.61 µM | GI50 [10]: 1.69 µM | TGI [10]: 3.13 µM | GI50 [11]: 1.84 µM | TGI [11]: 3.28 µM | GI50 [12]: 0.186 µM | TGI [12]: 0.372 µM | GI50 [13]: 1.96 µM | TGI [13]: 3.42 µM

Nc1ccccc1C#Cc1ccccc1C#Cc1cnccn1
GI50 [14]: 15.3 µM | TGI [14]: 28.7 µM | GI50 [1]: 44.3 µM | TGI [1]: > 100 µM | GI50 [15]: 24.1 µM | TGI [15]: 46.2 µM | GI50 [16]: 13.7 µM | TGI [16]: 28.7 µM | GI50 [2]: 14.3 µM | TGI [2]: 29.2 µM | GI50 [17]: 33.2 µM | TGI [17]: > 100 µM | GI50 [3]: 14.5 µM | TGI [3]: 28.1 µM | GI50 [18]: 14.1 µM | TGI [18]: 27.7 µM | GI50 [19]: 17 µM | TGI [19]: 36.4 µM | GI50 [20]: 16.6 µM | TGI [20]: 34.6 µM | GI50 [21]: 21.5 µM | TGI [21]: > 100 µM | GI50 [22]: 21.1 µM | TGI [22]: 54.9 µM | GI50 [23]: 24.8 µM | TGI [23]: 53 µM | GI50 [24]: 26.1 µM | TGI [24]: 93.1 µM | GI50 [6]: 11 µM | TGI [6]: 23.9 µM | GI50 [25]: 17 µM | TGI [25]: 33.7 µM | GI50 [26]: 16 µM | TGI [26]: 29.5 µM | GI50 [27]: 14.3 µM | TGI [27]: 29.3 µM | GI50 [28]: 3.48 µM | TGI [28]: 13.6 µM | GI50 [29]: 40.8 µM | TGI [29]: > 100 µM | GI50 [30]: 17.2 µM | TGI [30]: 32.8 µM | GI50 [31]: 16.8 µM | TGI [31]: 30.5 µM | GI50 [32]: 7.87 µM | TGI [32]: 20.5 µM | GI50 [33]: 9.05 µM | TGI [33]: 30.2 µM | GI50 [34]: 16.2 µM | TGI [34]: 37.4 µM | GI50 [7]: 9.79 µM | TGI [7]: 25.8 µM | GI50 [8]: 20.6 µM | TGI [8]: 72.3 µM | GI50 [35]: 18.6 µM | TGI [35]: 43.5 µM | GI50 [9]: 48 µM | TGI [9]: > 100 µM | GI50 [36]: 12.7 µM | TGI [36]: 27.5 µM | GI50 [37]: 14.8 µM | TGI [37]: 50.2 µM | GI50 [38]: 85.4 µM | TGI [38]: > 100 µM | GI50 [39]: 11.7 µM | TGI [39]: 25.1 µM | GI50 [40]: 11.8 µM | TGI [40]: 24 µM | GI50 [41]: 17.1 µM | TGI [41]: 31.6 µM | GI50 [42]: 17.5 µM | TGI [42]: 32 µM | GI50 [10]: 4.6 µM | TGI [10]: 18 µM | GI50 [11]: 22.2 µM | TGI [11]: 55 µM | GI50 [43]: 15.2 µM | TGI [43]: 30 µM | GI50 [44]: 20.1 µM | TGI [44]: 40.5 µM | GI50 [45]: 24.6 µM | TGI [45]: 84.8 µM | GI50 [12]: 17.3 µM | TGI [12]: 31.7 µM | GI50 [46]: 17.7 µM | TGI [46]: 32 µM | GI50 [47]: 35.3 µM | TGI [47]: 79.9 µM | GI50 [48]: 14.6 µM | TGI [48]: 28 µM | GI50 [49]: 12.1 µM | TGI [49]: 28.1 µM
